Assay results taken from patent publication US20120136003A1, “COMPOUNDS, COMPOSITIONS AND METHODS COMPRISING 1,3,4-OXADIAZOLE DERIVATIVES” (Institute For Oneworld Health, priority 2009, published 2012).

Key:
CFTR [1] = target: T1, CFTR (Homo sapiens, UniProt P13569); experiment: CHO-CFTR IonWorks Quattro (IWQ) population patch clamp; type: cell-based; design: expressed in transfected cells; host or cells: CHO-K1 cells, stably transfected; settings: @-60 mV; room temperature
Procedure: Currents were recorded at room temperature (21-23° C.) using IonWorks® Quattro™ (Molecular Devices, Inc) Population Patch Clamp (PPC) mode automated electrophysiology recording techniques.
Before recording commenced, a T175 culture flask containing CHO-K^1 cells stably transfected with the CFTR gene were washed with 10 ml of Dulbecco's phosphate buffered saline (without Ca^2+ or Mg^2+) followed by addition of 1 ml of 0.05% Trypsin EDTA (Invitrogen, cat no. 25300054) to the flask. After 1-2 minutes incubation, flasks were gently tapped to lift the cells from the substrate and 10 ml of complete media added. Cells were spun at 1,000 rpm for 3 minutes, followed by re-suspension of the pellet in external buffer and use of the resulting cell suspension at a density of 2×10^6 cells per ml. The external solution used for recording was Dulbecco's phosphate buffered saline (Invitrogen, cat no. 14040091) and contained (in mM) 137.9 NaCl, 2.7 KCl, 0.901 CaCl2, 0.5 MgCl2.6H2O, 1.5 KH2PO4, 8.1 Na2HPO4.7H2O. The internal solution contained the following (in mM): 10 NaCl (Sigma, cat no. S7653), 90 KGluconate (Sigma, cat no. G4500), 30 KF (Sigma, cat no. 60238), 1 MgCl2 (Fluka, cat no. 63020), 5 EGTA (Sigma, cat no. E3889), 10 HEPES (Sigma, cat no. H3375); pH 7.4 with KOH. […]
Target sequence in this assay (P13569 whole entry, species assumed): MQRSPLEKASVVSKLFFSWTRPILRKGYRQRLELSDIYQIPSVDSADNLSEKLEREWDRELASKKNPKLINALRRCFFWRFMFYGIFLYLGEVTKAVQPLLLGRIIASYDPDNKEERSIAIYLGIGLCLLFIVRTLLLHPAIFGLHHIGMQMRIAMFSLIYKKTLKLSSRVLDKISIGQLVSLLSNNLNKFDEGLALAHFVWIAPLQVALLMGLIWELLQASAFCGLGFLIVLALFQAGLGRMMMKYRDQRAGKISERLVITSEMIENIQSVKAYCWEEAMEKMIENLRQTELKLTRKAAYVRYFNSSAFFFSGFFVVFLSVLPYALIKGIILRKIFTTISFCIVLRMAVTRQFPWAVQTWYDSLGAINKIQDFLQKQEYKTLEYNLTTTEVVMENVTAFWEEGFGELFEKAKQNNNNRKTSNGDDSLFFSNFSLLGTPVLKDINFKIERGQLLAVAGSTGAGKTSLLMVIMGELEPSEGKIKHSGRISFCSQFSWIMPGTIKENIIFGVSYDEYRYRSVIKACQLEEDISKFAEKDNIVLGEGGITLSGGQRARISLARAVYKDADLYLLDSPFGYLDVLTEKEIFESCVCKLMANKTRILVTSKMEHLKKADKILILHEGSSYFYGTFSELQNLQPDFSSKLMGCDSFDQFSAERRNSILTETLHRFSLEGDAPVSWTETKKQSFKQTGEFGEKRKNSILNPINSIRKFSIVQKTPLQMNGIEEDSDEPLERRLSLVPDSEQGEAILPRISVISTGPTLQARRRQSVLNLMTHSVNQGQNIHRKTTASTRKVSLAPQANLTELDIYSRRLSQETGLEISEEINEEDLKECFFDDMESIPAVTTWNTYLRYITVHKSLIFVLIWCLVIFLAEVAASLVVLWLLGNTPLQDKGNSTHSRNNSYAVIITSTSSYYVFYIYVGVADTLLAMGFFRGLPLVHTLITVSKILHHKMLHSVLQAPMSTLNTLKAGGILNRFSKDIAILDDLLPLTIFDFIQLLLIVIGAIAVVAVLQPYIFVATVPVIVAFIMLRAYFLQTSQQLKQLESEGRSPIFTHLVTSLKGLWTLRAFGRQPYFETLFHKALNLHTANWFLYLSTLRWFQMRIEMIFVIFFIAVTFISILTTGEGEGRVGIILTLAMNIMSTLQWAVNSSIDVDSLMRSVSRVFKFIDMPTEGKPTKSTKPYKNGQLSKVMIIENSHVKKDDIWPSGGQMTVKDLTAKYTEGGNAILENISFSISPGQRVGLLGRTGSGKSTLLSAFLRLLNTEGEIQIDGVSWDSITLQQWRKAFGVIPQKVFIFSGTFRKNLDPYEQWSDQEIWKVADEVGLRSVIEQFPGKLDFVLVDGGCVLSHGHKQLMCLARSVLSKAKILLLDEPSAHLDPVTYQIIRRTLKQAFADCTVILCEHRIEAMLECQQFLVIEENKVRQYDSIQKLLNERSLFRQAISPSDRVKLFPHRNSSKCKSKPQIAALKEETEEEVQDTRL

[2] = test system: mice (CD1 strain), intestinal loops with cholera toxin (CTX); settings: mouse, in vivo
CFTR [3] = target: T1, CFTR; experiment: CHO-CFTR assay (FLIPR assay); type: cell-based; design: expressed in transfected cells; host or cells: CHO-K1 cells, stably transfected; settings: same assay conditions (FLIPR assay); read-out: IC50 value in the CHO-CFTR cell line
Target sequence in this assay (P13569 whole entry, species assumed): as above

CFTR [4] = target: T1, CFTR; experiment: T84 assay (FLIPR membrane potential); type: cell-based; design: Human colonic T84 cells are acquired from the European Collection of Cell Cultures (ECACC); host or cells: T84 human colonic cells
Procedure: (§1) For example, Human colonic T84 cells can be acquired from the European Collection of Cell Cultures (ECACC) and grown in standard culture conditions as described by the supplier. On the day before assay 25,000 T84 cells per well are plated into standard black walled, clear bottom 384-well assay plates in standard growth medium consisting of DMEM:F12 with 10% FBS and incubated overnight. On the day of the assay the plates are washed using a standard assay buffer (HBSS with 10 mM Hepes) and incubated for 15 minutes in serum free cell culture medium before the addition of a commercially available membrane potential sensitive fluorescent dye (FLIPR Red membrane potential dye, Molecular Devices Corporation). T84 cells are incubated with the FLIPR Red membrane potential dye for 45 minutes in the presence and absence of test compound before being transferred to a commercially available fluorescence imaging plate reader (FLIPR384, Molecular Devices Corporation). Fluorescence levels are monitored continuously every second for 150 seconds; after an initial 10 second baseline, CFTR channel activity is stimulated through the addition of 10 μM forskolin in the presence of 100 μM of the phosphodiesterase inhibitor iso-butyl-methylxanthine (IBMX). Addition of the forskolin leads to the activation of intracellular adenylyl cylase 1, elevating cAMP levels and results in the phosphorylation and opening of CFTR anion channels. CFTR channel opening causes chloride ion efflux and subsequent depolarization of the cells, which is measured by an increase in fluorescence. CFTR inhibitor compounds prevent cell depolarization and the associated increase in fluorescence.
as §1, with “Human colonic” for “For example, Human colonic”, “T84 cells are acquired from” for “T84 cells can be acquired from”, “(ECACC) and are grown in” for “(ECACC) and grown in”, “with 10 Mm Hepes) and” for “with 10 mM Hepes) and”, “1, elevating Camp levels and” for “1, elevating cAMP levels and”
Target sequence in this assay (P13569 whole entry): as the sequence (P13569 whole entry, species assumed) above

O=C(c1nnc(-c2cc(Cl)c(O)c(Cl)c2)o1)N1CCN(c2cccc(C(F)(F)F)c2)CC1 [Compound 4, (5-(3,5-dichloro-4-hydroxyphenyl)-1,3,4-oxadiazol-2-yl)(4-(3-(trifluoromethyl)phenyl)piperazin-1-yl)methanone]
IC50 (CFTR [1]): 4.71 µM | closed loop % inhibition [2]: 92.5% | IC50 (CFTR [3]): 10.6 µM | IC50 (CFTR [4]): 16.9 µM
